According to patent US5593656A, “Metal-binding targeted polypeptide constructs” (Cytogen Corporation, priority 1995, dated 1997):

Legend:
[1] = biological target: T1, I-125-GRP binding to NIH-3T3 cells (Mus musculus, UniProt P21729); experiment: In vitro receptor binding assay: inhibition of binding of I-125-GRP to NIH-3T3 cells; set-up: species or system Murine; settings: for IC50: […] 125I-GRP, 30 min RT, read-out: IC50, inhibition of binding of labeled GRP to NIH-3T3 cells; for Binding of competing ligand relative to control ligand Neuromedin C: competition with 125I-GRP
T1 construct: Murine NIH-3T3 fibroblast cells (ATCC No. CCL92) were released from flasks; endogenous in cells; host or cells: NIH-3T3 murine fibroblasts (ATCC No. CCL92), whole cells
T1 sequence (P21729 whole entry): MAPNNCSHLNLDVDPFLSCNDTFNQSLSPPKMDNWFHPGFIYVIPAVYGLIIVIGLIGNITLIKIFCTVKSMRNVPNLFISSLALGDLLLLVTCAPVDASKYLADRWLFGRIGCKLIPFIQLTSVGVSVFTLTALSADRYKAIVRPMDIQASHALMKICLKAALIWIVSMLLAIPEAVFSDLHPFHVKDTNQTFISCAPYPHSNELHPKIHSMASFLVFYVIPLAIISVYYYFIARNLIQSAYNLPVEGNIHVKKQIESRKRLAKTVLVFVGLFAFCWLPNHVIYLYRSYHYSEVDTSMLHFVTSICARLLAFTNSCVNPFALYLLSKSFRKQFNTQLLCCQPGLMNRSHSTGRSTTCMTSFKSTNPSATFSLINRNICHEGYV
Description: Murine NIH-3T3 fibroblast cells (ATCC No. CCL92) were released from flasks with EDTA harvest buffer, consisting of 0.6 mm EDTA, 25 mm PBS (8 g NaCl, 0.2 g KCl, 1.44 g Na2 PO4, 0.2 g KH2 PO4 per liter), pH 7.4, 37° C., by incubation for 15 min.
The cells were washed twice with Assay Buffer (50 mM Tris-HCl, 100 mM NaCl, 0.1% BSA, 0.1 mg/mL bacitracin, 0.05 mg/mL aprotinin, 1 mM PMSF), pH 7.4, 4° C. and resuspended at a density of 3×10^6 cells/mL.
A 0.5 mL Eppendorf tube was prepared for each assay point by incubating the tube overnight with a blocking solution of 1% BSA, 50 mM Tris. HCl, 100 mM NaCl, pH 7.4. The blocking solution was removed.
Each tube was charged with 4×10^4 cells. […] Three control tubes with no cells or competitor were prepared for measurement of total counts added.
The samples were incubated for 30 min at RT. The contents of each tube were transferred into the wells of a 96-well filter bottom plate (Millipore Multiscreen, Arlington Heights, Mass.) and filtered under moderate vacuum (water aspirator). Each filter was washed three times by filling each well with ice cold PBS, Ph 7.4, 0.1% BSA. The plate was allowed to dry. Dried filters were placed into gamma-counter tubes (12×75 mm glass). The radioactivity on each filter and in the control tubes was counted using a LKB gamma counter. The bound/total added for each assay tube was calculated.

[2] = system: HT-29 colon carcinoma xenograft tumors; settings: Tc-99m labeled, i.v., 22 hours after injection
Description: Biodistribution and imaging studies were conducted using female Nu/Nu HT-29 xenograft tumor-bearing mice, a model for colon carcinoma. […] Two μg of the test compounds were labeled with 100 μCi of Tc-99m and each was injected into 10 Nu/Nu mice bearing HT-29 tumors on the flank. The organs of interest were removed from half the mice at 3 hr, and the organs of the remaining mice were removed at 22 h. Each set of organs were counted for gamma radiation.
Twenty μg of each construct was dissolved in 20 mM sodium acetate, pH 4.5, at a minimum concentration of 30 μg/mn. The pH was checked and adjusted as necessary. A 50 mCi vial of ^99m TcO4 Na (Syncor) was added to a vial of Glucoscan® (Dupont) in a leaded glass shield using a shielded tuberculin syringe. 100 μL of the resulting solution was dose calibrated, and the volume required for 20 doses of 100 μCi was calculated (ca. 40-45 μL). This amount was divided into two equal parts and added to the two solutions of construct in microfuge tubes and incubated for 1 h at 37° C. Percent chelation was checked by chromatography on ITLC developed with 0.9% saline, and analyzed by autoradiography counter. The two solutions were diluted to 2.2 mL each with 0.9% saline. The diluted solutions werethen divided into numbered tuberculin syringes (200 μL each). […]
Dissected tissues were weighed, and their content of Tc-99m was determined by gamma counting.

Substance | IC50 [1] [nM] | Binding of competing ligand relative to control ligand Neuromedin C [1] | Localization to HT-29 tumors [2]
Benzoic acid bis-thiourea derived from Neuromedin-C [Compound 3] | 10.6 | within an order of magnitude of the control ligand Neuromedin C | evident
Benzoic acid bis-thiosemicarbazide derived from N-acetyl-Neuromedin C-hydrazide [Compound 6] | 43.3 | within an order of magnitude of the control ligand Neuromedin C | evident
